Source: patent US20250164397A1, “SULPHIDE SENSOR” (Oxford University Innovation Limited, priority 2021, published 2025)

Tests used:
Water solubility = type: physicochemical
[1] = Fluorescence response of BODIPY receptors in H2O/30% ACN upon titration with various anions; type: binding; conditions: 70% water/30% acetonitrile
Text: (§1) Any observed fluorescence quenching in water could be readily circumvented by addition of a small amount of organic co-solvent. Preliminary solution-phase fluorescence sensing studies of both receptors were thus carried out in 70% water/30% acetonitrile.

[2] = Fluorescence emission change on addition of NaCl, NaBr, NaI, NaHS in pH 7.4 HEPES buffer (any anion); type: binding
Description: (§2) Fluorescence titration experiments were performed using a Horiba Duetta at 293 K. The host molecules (XB1-3, and HB1-3) were dissolved in 10 mM HEPES aqueous buffer solution at pH 7.4 at a concentration of 10 μM. Na salts of the appropriate anion were dissolved in the solution of the host molecule to obtain a concentration. Aliquots of the anion solution were added to 1.00 mL of the host solution in a quartz cuvette, where the sample was then thoroughly mixed before fluorescence spectra were recorded. Association constants were obtained by global analysis using BindFit, using a host-guest 1:1 binding model.
(§3) The fluorescence emission, following excitation at 342 nm, was monitored upon the addition of sodium hydrosulfide and halide salts.
(§4) With XB2, both Br^− and I^− were sensed (FIG. 11), with the heavier halide also being detected by XB3H^+ (FIG. 13).

[3] = Fluorescence titration with NaBr, Bindfit 1:1 analysis, pH 7.4 10 mM aqueous HEPES buffer; type: binding; set-up: key to Association constant Ka Br^−: NB: No binding observed; conditions: for Association constant Ka Br^−: 10 μM receptors in 10 mM aqueous HEPES buffer solution, pH = 7.4, 1:1 host:guest, errors in brackets; for fluorescence response to Br^−: excitation at 342 nm, pH 7.4 HEPES
Description: as §2
(§5) The anion sensing properties were investigated in pH 7.4 aqueous HEPES buffer solution using fluorescence spectroscopy. At this pH value the protonated forms XB3H^+ and HB3H^+ are the dominant receptor species present in the aqueous solution. The amine pKa of XB3 (10.29) and HB3 (9.98) were experimentally determined by monitoring changes in fluorescence with pH. (FIG. 16).
as §3, §4
(§6) Bindfit analysis^23,24 of the titration data for XB and HB receptors was used to determine 1:1 host: guest stoichiometric anion association constants, as shown below in Table 1.

[4] = Fluorescence titration with NaHS, Bindfit 1:1 analysis and LoD, pH 7.4 10 mM aqueous HEPES buffer; type: binding; set-up: key to Association constant Ka HS^− / LoD, Limit of Detection for HS−: NB: No binding observed; conditions: for Association constant Ka HS^−: 10 μM receptors in 10 mM aqueous HEPES buffer solution, pH = 7.4, 1:1 host:guest, errors in brackets; for LoD, Limit of Detection for HS−: 10 μM receptors in 10 mM aqueous HEPES buffer, pH 7.4
Description: as §2, §5
The fluorescence emission, following excitation at 342 nm, was monitored upon the addition of sodium hydrosulfide and halide salts. […]
as §6

[5] = Fluorescence titration with NaI, Bindfit 1:1 analysis, pH 7.4 10 mM aqueous HEPES buffer; type: binding; set-up: key to Association constant Ka I^−: NB: No binding observed; conditions: for Association constant Ka I^−: 10 μM receptors in 10 mM aqueous HEPES buffer solution, pH = 7.4, 1:1 host:guest, errors in brackets; for fluorescence response to I^−: excitation at 342 nm, pH 7.4 HEPES
Description: as §2, §5, §3, §4, §6

[6] = pKa determined by monitoring changes in fluorescence with pH; type: physicochemical; conditions: for pKa1 / pKa2: emission intensity change with changing pH; for amine pKa: monitoring changes in fluorescence with pH
Text: FIG. 16. XB3: a) XB3 emission intensity change with decreasing pH; b) Emission intensity change for select wavelengths with changing pH; pKa1=4.07 (±0.01), pKa2=10.29 (±0.01). HB3: a) HB3 emission intensity change with decreasing pH; b) Emission intensity change for select wavelengths with changing pH; pKa1=5.91 (±0.07), pKa2=9.98 (±0.01).
as §5

[7] = Fluorescence titration with NaCl, Bindfit 1:1 analysis, pH 7.4 10 mM aqueous HEPES buffer; type: binding; set-up: key to Association constant Ka Cl^−: NB: No binding observed; conditions: for Association constant Ka Cl^−: 10 μM receptors in 10 mM aqueous HEPES buffer solution, pH = 7.4, 1:1 host:guest, errors in brackets; for fluorescence response to Cl^−: excitation at 342 nm, pH 7.4 HEPES
Description: as §2, §5, §3, §4, §6

[8] = cited from earlier work
[9] = Solution-phase fluorescence sensing of BODIPY receptors in 70% water/30% acetonitrile; type: binding
Text: as §1

[10] = Fluorescence titration of XB4 with NaBr in unbuffered water, BindFit; type: binding; conditions: unbuffered water at 298 K
Description: (§7) Fluorescence titrations of XB4 were carried out with chloride, bromide, iodide and hydrosulfide.
(§8) BindFit analysis for each anion to determine binding isotherms (FIG. 20), and 1:1 stoichiometric association constants, shown in Table 2, was also conducted for XB4.

[11] = Fluorescence titration of XB4 with NaCl in unbuffered water, BindFit; type: binding; set-up: key: N.B.: No Binding; conditions: unbuffered water at 298 K; errors in parentheses
Description: as §7, §8

[12] = Fluorescence titration of XB4 with NaSH in unbuffered water, BindFit; type: binding; conditions: unbuffered water at 298 K
Description: as §7, §8

[13] = Fluorescence titration of XB4 with NaI in unbuffered water, BindFit; type: binding; conditions: unbuffered water at 298 K
Description: as §7, §8

[14] = Fluorescence titration of buffered receptor against NaOH; conditions: buffered 10 μM receptor
Text: (§9) However, the increase in binding strength comes at the expense of a diminished degree of selectivity for HS^− as XB2 also binds Br^− and in particular I^− strongly.

[15] = Electrospray mass spectrometry monitoring for reaction with excess HS^−; type: physicochemical; conditions: 10 μM in 10 mM HEPES aqueous buffer (7.4 pH), excess equivalents of HS^−
Text: as §9

[16] = excitation at 342 nm, pH 7.4 HEPES

## COCCOCCOCCOc1cc(COC(=O)c2cc(-n3cc(C4=C5C(C)=CC(C)=[N+]5[B-](F)(F)n5c(C)cc(C)c54)nn3)cc(-n3cc(C4=C5C(C)=CC(C)=[N+]5[B-](F)(F)n5c(C)cc(C)c54)nn3)c2)cc(OCCOCCOCCOC)c1OCCOCCOCCOC [HB-BDP-PEG, reference compound]
Water solubility
  water solubility: generally water soluble
[1]
  response for all anions, in particular HS^−, compared with XB-BDP-PEG: significantly diminished

## COCCOCCOCCOc1cc(COc2ccc3cc(-n4cc(CNCc5cn(-c6cc7ccc(OCc8cc(OCCOCCOCCOC)c(OCCOCCOCCOC)c(OCCOCCOCCOC)c8)cc7oc6=O)nn5)nn4)c(=O)oc3c2)cc(OCCOCCOCCOC)c1OCCOCCOCCOC [HB3, reference compound]
[2]
  fluorescent response to any anion: no fluorescent response to any anion
[3]
  Association constant Ka Br^−: NB
[4]
  Association constant Ka HS^−: NB
  LoD, Limit of Detection for HS−: NB
[5]
  Association constant Ka I^−: NB
[6]
  pKa1: 5.91 (±0.07)
  pKa2: 9.98 (±0.01)
  amine pKa: 9.98
[7]
  Association constant Ka Cl^−: NB

## S [Compound H2S, hydrogen sulphide]
[8]
  pKa: 7.0

## COCCOCCOCCOc1cc(COC(=O)c2cc(-n3nnc(C4=C5C(C)=CC(C)=[N+]5[B-](F)(F)n5c(C)cc(C)c54)c3I)cc(-n3nnc(C4=C5C(C)=CC(C)=[N+]5[B-](F)(F)n5c(C)cc(C)c54)c3I)c2)cc(OCCOCCOCCOC)c1OCCOCCOCCOC [XB-BDP-PEG]
[9]
  fluorescence perturbation by I^−: Smaller, but notable, perturbations
  fluorescence perturbation by SCN^−: Smaller, but notable, perturbations
  fluorescence response to Br: only very small responses
  fluorescence response to Cl: only very small responses
[9]; preliminary
  emission quenching by HS^−: ≈ 65%
Water solubility
  water solubility: generally water soluble

## COCCOCCOCCOc1cc(COc2ccc3cc(-n4nnc(-c5cc(-c6nnn(-c7cc8ccc(OCc9cc(OCCOCCOCCOC)c(OCCOCCOCCOC)c(OCCOCCOCCOC)c9)cc8oc7=O)c6I)c[n+](C)c5)c4I)c(=O)oc3c2)cc(OCCOCCOCCOC)c1OCCOCCOCCOC.O=S(=O)([O-])C(F)(F)F [XB2]
[3]
  Association constant Ka Br^−: 60800 M⁻¹
  fluorescence response to Br^−: sensed
[4]
  Association constant Ka HS^−: 158000 (31000) M^−1
[4]; [16]
  quenching on addition of HS^−: 45%
[5]
  Association constant Ka I^−: 103000 (24000) M^−1
  fluorescence response to I^−: sensed
[7]
  Association constant Ka Cl^−: NB
  fluorescence response to Cl^−: no change was observed

## COCCOCCOCCOc1cc(COc2ccc3cc(-n4cc(-c5cncc(-c6cn(-c7cc8ccc(OCc9cc(OCCOCCOCCOC)c(OCCOCCOCCOC)c(OCCOCCOCCOC)c9)cc8oc7=O)nn6)c5)nn4)c(=O)oc3c2)cc(OCCOCCOCCOC)c1OCCOCCOCCOC [HB1, reference compound]
[2]
  fluorescent response to any anion: only minor fluorescence perturbations
[3]
  Association constant Ka Br^−: NB
[4]
  Association constant Ka HS^−: NB
  LoD, Limit of Detection for HS−: NB
[5]
  Association constant Ka I^−: NB
[7]
  Association constant Ka Cl^−: NB

## COCCOCCOCCN(CCCOc1ccc2cc(-n3nnc(CNCc4nnn(-c5cc6ccc(OCCCN(CCOCCOCCOC)CCOCCOCCOC)cc6oc5=O)c4I)c3I)c(=O)oc2c1)CCOCCOCCOC [XB4]
[10]
  coumarin fluorescence response to bromide: switching off
[10]; errors in parentheses
  Association constant Ka Br^−: >10^5 M^−1
[11]
  Association constant Ka Cl^−: N.B.
[12]
  coumarin fluorescence response to hydrosulfide: switching off
[12]; errors in parentheses
  Association constant Ka HS^−: 7500 (660) M^−1
[13]
  coumarin fluorescence response to iodide: switching off
[13]; errors in parentheses
  Association constant Ka I^−: >10^5 M^−1

## COCCOCCOCCOc1cc(COc2ccc3cc(-n4nnc(CNCc5nnn(-c6cc7ccc(OCc8cc(OCCOCCOCCOC)c(OCCOCCOCCOC)c(OCCOCCOCCOC)c8)cc7oc6=O)c5I)c4I)c(=O)oc3c2)cc(OCCOCCOCCOC)c1OCCOCCOCCOC [XB3]
[3]
  Association constant Ka Br^−: NB
[4]
  Association constant Ka HS^−: 5600 (530) M^−1
[4]; listed as XB3H^+
  LoD, Limit of Detection for HS−: 24.6 µM
[4]; [16]
  quenching on addition of HS^−: 38%
[14]
  change in fluorescence on titration against NaOH: no change in fluorescence
[5]
  Association constant Ka I^−: 46000 (14000) M^−1
  fluorescence response to I^−: detected
[6]
  pKa1: 4.07 (±0.01)
  pKa2: 10.29 (±0.01)
  amine pKa: 10.29
[7]
  Association constant Ka Cl^−: NB
  fluorescence response to Cl^−: no change was observed

## COCCOCCOCCOc1cc(COc2ccc3cc(-n4nnc(-c5cncc(-c6nnn(-c7cc8ccc(OCc9cc(OCCOCCOCCOC)c(OCCOCCOCCOC)c(OCCOCCOCCOC)c9)cc8oc7=O)c6I)c5)c4I)c(=O)oc3c2)cc(OCCOCCOCCOC)c1OCCOCCOCCOC [XB1]
[15]
  reaction with HS^− (electrospray mass spectrometry): no evidence of reaction was observed
[3]
  Association constant Ka Br^−: NB
  fluorescence response to Br^−: no intensity diminutions
[4]
  Association constant Ka HS^−: 16500 (1600) M^−1
[4]; 10 equivalents of HS^−, excitation at 342 nm, pH 7.4 HEPES
  fluorescence intensity quenched: 60%
[5]
  Association constant Ka I^−: NB
  fluorescence response to I^−: no intensity diminutions
[7]
  Association constant Ka Cl^−: NB
  fluorescence response to Cl^−: no intensity diminutions
